# Measured values: US8283336B2, “Unit dosage for brain health” (N. V. Nutricia, priority 2007, dated 2012)
# Tested on: APP/PS1 mice
# Experiment: abeta plaque burden in hippocampus of APP/PS1 mice fed enriched diets
# Assay type: in vivo
# Settings: diet fed 3 months from 3 to 6 months of age, compared to control diet
# From the text: (§1) These mice start showing plaques in their brains as early as 4-5 months of age and are considered a good model for AD in scientific literature.
# (§2) The diets were fed for a period of 3 months until the age of 6 months. Thereafter the mice were sacrificed and their brains processed for abeta plaque analyses and neurodegeneration analyses. The brain was cut into thin slices using a vibratome and the slices were stained for abeta using an antibody recognizing human abeta and for neurodegeneration using the amino-cupric staining The total number of plaques in the hippocampus was counted and the total surface of the area covered by plaques (plaque burden) was determined. Total surface area covered with neuritic plaques (staining positive for amino-cupric) was determined to measure the level of neurodegeneration.
row,SMILES,plaque burden in the hippocampus
1,"O=c1ccn([C@@H]2O[C@H](COP(=O)(O)O)[C@@H](O)[C@H]2O)c(=O)[nH]1 [UMP, uridine monophosphate]",not affected

# Tested on: APP/PS1 mice
# Experiment: neurodegeneration (amino-cupric staining of neuritic plaques) in APP/PS1 mice fed enriched diets
# Assay type: in vivo
# Settings: diet fed 3 months from 3 to 6 months of age, compared to control diet
# From the text: as §1, §2
row,SMILES,level of neurodegeneration
1,"O=c1ccn([C@@H]2O[C@H](COP(=O)(O)O)[C@@H](O)[C@H]2O)c(=O)[nH]1 [UMP, uridine monophosphate]",did not differ from the control

# Tested on: muscarinic acetylcholine receptor
# Experiment: oxotremorine-induced membrane potential change in PC12 cells after incubation with nutrients (receptor functionality)
# Assay type: cell-based
# Settings: 1 day of incubation, then 50 μM oxotremorine, percentage change compared to control conditions
# Protocol: After 1 day of incubation the medium+additions were replaced by control medium and the cells were stimulated with 50 μM oxotremorine, an agonist at the muscarinic acetylcholine receptor, involved in learning and memory. Oxotremorine induces a depolarization of the membrane which can be measured as a change in membrane potential. At a fixed dose of the agonist, increases in membrane potential are thought to reflect improvements in receptor functioning.
row,SMILES,membrane potential change
1,"O=c1ccn([C@@H]2O[C@H](COP(=O)(O)O)[C@@H](O)[C@H]2O)c(=O)[nH]1 [UMP, uridine monophosphate]",did not affect membrane potential change

# Tested on: PC12 cells
# Experiment: survival of PC12 cells during incubation with nutrients
# Assay type: cell-based
# Settings: control medium plus nutrient
row,SMILES,cell death on incubation
1,"CC/C=C\C/C=C\C/C=C\C/C=C\C/C=C\C/C=C\CCC(=O)O [DHA, docosahexaenoic acid]",led to cell death

# Tested on: not given
# Experiment: not given
# Settings: per 1.0 mg of the tocopherol equivalent; cited from earlier work
SMILES,IU vitamin E [IU],x mg α-TE [mg α-TE]
Cc1c(C)c2c(c(C)c1O)CCC(C)(CCCC(C)CCCC(C)CCCC(C)C)O2 (racemic) [all rac-α-tocopherol],1.10,0.74
CC(=O)Oc1c(C)c(C)c2c(c1C)CCC(C)(CCCC(C)CCCC(C)CCCC(C)C)O2 (racemic) [all rac-α-tocopheryl acetate],1.00,0.67
Cc1c(C)c2c(c(C)c1OC(=O)CCC(=O)O)CCC(C)(CCCC(C)CCCC(C)CCCC(C)C)O2 (racemic) [all rac-α-tocopheryl succinate],0.89,0.60
Cc1c(C)c2c(c(C)c1O)CC[C@@](C)(CCC[C@H](C)CCC[C@H](C)CCCC(C)C)O2 [RRR-α-tocopherol],1.49,1.0
CC(=O)Oc1c(C)c(C)c2c(c1C)CC[C@@](C)(CCC[C@H](C)CCC[C@H](C)CCCC(C)C)O2 [RRR-α-tocopheryl acetate],1.36,0.91
Cc1c(C)c2c(c(C)c1OC(=O)CCC(=O)O)CC[C@@](C)(CCC[C@H](C)CCC[C@H](C)CCCC(C)C)O2 [RRR-α-tocopheryl succinate],1.21,0.81
CC(C)=CCC/C(C)=C/CC/C(C)=C/CC[C@]1(C)CCc2c(C)c(O)c(C)c(C)c2O1 [RRR-α-tocotrienol],0.75,0.50
Cc1cc(O)c(C)c2c1O[C@](C)(CCC[C@H](C)CCC[C@H](C)CCCC(C)C)CC2 [RRR-β-tocopherol],0.75,0.50
CC(C)=CCC/C(C)=C/CC/C(C)=C/CC[C@]1(C)CCc2c(C)c(O)cc(C)c2O1 [RRR-β-tocotrienol],0.08,0.05
Cc1c(O)cc2c(c1C)O[C@](C)(CCC[C@H](C)CCC[C@H](C)CCCC(C)C)CC2 [RRR-γ-tocopherol],0.15,0.10
Cc1cc(O)cc2c1O[C@](C)(CCC[C@H](C)CCC[C@H](C)CCCC(C)C)CC2 [RRR-δ-tocopherol],0.05,0.03
